Reference: US20230089867A1, “CYCLIC PENTAMER COMPOUNDS AS PROPROTEIN CONVERTASE SUBTILISIN/KEXIN TYPE 9 (PCSK9) INHIBITORS FOR THE TREATMENT OF METABOLIC DISORDER” (Novartis AG, priority 2018, published 2023)
pIC50: −log10 of the molar value.

Biological target: human PCSK9 (Homo sapiens, UniProt Q8NBP7)
Assay: PCSK9 ligand binding TR-FRET assay (interference with binding of human PCSK9 to human LDLR)
Settings: for Max % inhibition: PCSK9 FRET assay, efficacy (Amax), 100% = 1 uM unlabeled human PCSK9, 0% = DMSO; for pIC50: TR-FRET, human PCSK9 Alexa Fluor 647 / human LDLR extracellular domain-Europium Kryptate, read-out: PCSK9 FRET Assay IC50
Method in brief: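 Threefold compound dilutions were pre-incubated 30 min with PCSK9, after which 4 nM Europium Kryptate-tagged human LDLR ectodomain was added for a further 2 h.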

human PCSK9, sequence (Q8NBP7 153-692): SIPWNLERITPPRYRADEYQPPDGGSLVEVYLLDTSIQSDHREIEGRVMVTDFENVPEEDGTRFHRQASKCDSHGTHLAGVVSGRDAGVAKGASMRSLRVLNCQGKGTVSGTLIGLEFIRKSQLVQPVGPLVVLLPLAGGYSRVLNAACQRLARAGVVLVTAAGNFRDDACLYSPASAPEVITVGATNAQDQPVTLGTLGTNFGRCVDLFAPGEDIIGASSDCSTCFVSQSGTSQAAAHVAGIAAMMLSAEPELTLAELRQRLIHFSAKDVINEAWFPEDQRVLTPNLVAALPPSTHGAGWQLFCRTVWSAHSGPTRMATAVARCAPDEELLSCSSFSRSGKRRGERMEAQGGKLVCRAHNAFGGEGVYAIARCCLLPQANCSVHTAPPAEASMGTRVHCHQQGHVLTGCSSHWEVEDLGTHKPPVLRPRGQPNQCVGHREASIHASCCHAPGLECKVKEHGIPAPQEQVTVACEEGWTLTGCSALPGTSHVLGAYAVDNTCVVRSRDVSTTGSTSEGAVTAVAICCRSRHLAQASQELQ
human PCSK9, sequence (Q8NBP7 31-152 partner limits assumed): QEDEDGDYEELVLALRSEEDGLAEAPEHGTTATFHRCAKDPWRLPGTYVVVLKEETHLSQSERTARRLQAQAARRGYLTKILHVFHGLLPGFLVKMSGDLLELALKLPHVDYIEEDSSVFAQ

SMILES	Max % inhibition [%]	pIC50
COC[C@@H]1NC(=O)[C@H](C)N(Cc2ccc(Cl)cc2Oc2ccc(-c3cnc([C@@H](C)N(C)C)n3C)cc2)C(=O)C[C@@H](Cc2ccccc2)C(=O)N(C)[C@H]2CCCC[C@@H]2NC(=O)C[C@H](Cc2ccc(Cl)cc2)N(C)C1=O [Compound 104, (4S,7S,10S,14R,16aS,20aS)-14-benzyl-11-(4-chloro-2-(4-(2-((R)-1-(dimethylamino)ethyl)-1-methyl-1H-imidazol-5-yl)phenoxy)benzyl)-4-(4-chlorobenzyl)-7-(methoxymethyl)-5,10,16-trimethylhexadecahydrobenzo[l][1,4,7,11,14]pentaazacyclooctadecine-2,6,9,12,15(3H)-pentaone]	109.94	8.85
COC[C@@H]1NC(=O)[C@H](C)N(Cc2ccc(Cl)cc2Oc2ccc(-n3cnc(CN(C)C)c3C)cc2)C(=O)C[C@@H](Cc2ccccn2)C(=O)N(C)[C@H]2CCCC[C@@H]2NC(=O)C[C@H](Cc2ccc(Cl)cc2)N(C)C1=O [Compound 105, (4S,7S,10S,14R,16aS,20aS)-11-(4-chloro-2-(4-(4-((dimethylamino)methyl)-5-methyl-1H-imidazol-1-yl)phenoxy)benzyl)-4-(4-chlorobenzyl)-7-(methoxymethyl)-5,10,16-trimethyl-14-(pyridin-2-ylmethyl)hexadecahydrobenzo[l][1,4,7,11,14]pentaazacyclooctadecine-2,6,9,12,15(3H)-pentaone]	104.44	9.00
C=CC[C@@H]1CC(=O)N(Cc2ccc(C)cc2Oc2ccc(-c3cnc(CN(C)C)n3C)cc2)[C@@H](C)C(=O)N[C@@H](COC)C(=O)N(C)[C@@H](Cc2ccc(Cl)cc2)CC(=O)N[C@@H](C)[C@H](C)N(C)C1=O [Compound 107, (2S,5S,8S,12S,13S,16R)-16-allyl-8-(4-chlorobenzyl)-1-(2-(4-(2-((dimethylamino)methyl)-1-methyl-1H-imidazol-5-yl)phenoxy)-4-methylbenzyl)-5-(methoxymethyl)-2,7,12,13,14-pentamethyl-1,4,7,11,14-pentaazacyclooctadecane-3,6,10,15,18-pentaone]	100.41	8.77
COC[C@@H]1NC(=O)[C@H](C)N(Cc2ccc(Cl)cc2Oc2ccc(-c3cnc(CN4CCCC4)n3C)cc2)C(=O)C[C@@H](Cc2ccc(F)cc2)C(=O)N(C)[C@@H](C)CNC(=O)C[C@H](Cc2ccc(Cl)cc2)N(C)C1=O [Compound 108, (2S,5S,8S,13S,16R)-1-(4-chloro-2-(4-(1-methyl-2-(pyrrolidin-1-ylmethyl)-1H-imidazol-5-yl)phenoxy)benzyl)-8-(4-chlorobenzyl)-16-(4-fluorobenzyl)-5-(methoxymethyl)-2,7,13,14-tetramethyl-1,4,7,11,14-pentaazacyclooctadecane-3,6,10,15,18-pentaone]	99.73	9.15
C=CC[C@@H]1CC(=O)N(Cc2ccc(Cl)cc2Oc2ccc(-c3cnc(CN(C)C)n3C)cc2)[C@@H](C)C(=O)N[C@@H](COC)C(=O)N(C)[C@@H](Cc2ccc(Cl)cc2)CC(=O)N[C@H]2CCCC[C@@H]2N(C)C1=O [Compound 110, (4S,7S,10S,14R,16aS,20aS)-14-allyl-11-(4-chloro-2-(4-(2-((dimethylamino)methyl)-1-methyl-1H-imidazol-5-yl)phenoxy)benzyl)-4-(4-chlorobenzyl)-7-(methoxymethyl)-5,10,16-trimethylhexadecahydrobenzo[l][1,4,7,11,14]pentaazacyclooctadecine-2,6,9,12,15(3H)-pentaone]	99.22	8.92
COC[C@@H]1NC(=O)[C@H](CCCN2CCCC2)N(Cc2ccc(Cl)cc2Oc2ccc(-c3cnc(CN(C)C)n3C)cc2)C(=O)C[C@@H](Cc2cccc[n+]2[O-])C(=O)N(C)[C@H]2CCCC[C@@H]2NC(=O)C[C@H](Cc2ccc(Cl)cc2)N(C)C1=O [Compound 111, 2-(((4S,7S,10S,14R,16aS,20aS)-11-(4-chloro-2-(4-(2-((dimethylamino)methyl)-1-methyl-1H-imidazol-5-yl)phenoxy)benzyl)-4-(4-chlorobenzyl)-7-(methoxymethyl)-5,16-dimethyl-2,6,9,12,15-pentaoxo-10-(3-(pyrrolidin-1-yl)propyl)docosahydrobenzo[l][1,4,7,11,14]pentaazacyclooctadecin-14-yl)methyl)pyridine 1-oxide]	103.17	9.05

The remaining lines, values ahead:

Max % inhibition [%]	pIC50	SMILES
107.46	8.49	COC[C@@H]1NC(=O)[C@H](C)N(Cc2ccc(Cl)cc2Oc2ccc(-n3cnc(CN4CC5(COC5)C4)c3C)cc2)C(=O)C[C@@H](Cc2ccccc2)C(=O)N(C)[C@@H](C)CNC(=O)C[C@H](Cc2ccc(Cl)cc2)N(C)C1=O [Compound 112, (2S,5S,8S,13S,16R)-1-(2-(4-(4-(2-oxa-6-azaspiro[3.3]heptan-6-ylmethyl)-5-methyl-1H-imidazol-1-yl)phenoxy)-4-chlorobenzyl)-16-benzyl-8-(4-chlorobenzyl)-5-(methoxymethyl)-2,7,13,14-tetramethyl-1,4,7,11,14-pentaazacyclooctadecane-3,6,10,15,18-pentaone]
53.35	6.52	COC[C@@H]1NC(=O)[C@H](C)N(Cc2ccc(Cl)cc2Oc2cccc(C(=O)NC3CCNCC3)c2)C(=O)C[C@@H](Cc2ccccc2)C(=O)N(C)[C@@H](C)CNC(=O)C[C@H](Cc2ccc(Cl)cc2)N(C)C1=O [Compound 113, 3-(2-(((2S,5S,8S,13S,16R)-16-benzyl-8-(4-chlorobenzyl)-5-(methoxymethyl)-2,7,13,14-tetramethyl-3,6,10,15,18-pentaoxo-1,4,7,11,14-pentaazacyclooctadecan-1-yl)methyl)-5-chlorophenoxy)-N-(piperidin-4-yl)benzamide]
57.46	8.35	COC[C@@H]1NC(=O)[C@H](C)N(Cc2ccc(Cl)cc2Oc2ccc(-c3nnc4n3CCNC4)cc2)C(=O)C[C@@H](Cc2ccccc2)C(=O)N(C)[C@@H](C)CNC(=O)C[C@H](Cc2ccc(Cl)cc2)N(C)C1=O [Compound 114, (2S,5S,8S,13S,16R)-16-benzyl-1-(4-chloro-2-(4-(5,6,7,8-tetrahydro-[1,2,4]triazolo[4,3-a]pyrazin-3-yl)phenoxy)benzyl)-8-(4-chlorobenzyl)-5-(methoxymethyl)-2,7,13,14-tetramethyl-1,4,7,11,14-pentaazacyclooctadecane-3,6,10,15,18-pentaone]
72.72	8.28	COC[C@@H]1NC(=O)[C@H](C)N(Cc2ccc(Cl)cc2Oc2ccc(-c3cnc4c(c3)CNCC4)cc2)C(=O)C[C@@H](Cc2ccccc2)C(=O)N(C)[C@@H](C)CNC(=O)C[C@H](Cc2ccc(Cl)cc2)N(C)C1=O [Compound 115, (2S,5S,8S,13S,16R)-16-benzyl-1-(4-chloro-2-(4-(5,6,7,8-tetrahydro-1,6-naphthyridin-3-yl)phenoxy)benzyl)-8-(4-chlorobenzyl)-5-(methoxymethyl)-2,7,13,14-tetramethyl-1,4,7,11,14-pentaazacyclooctadecane-3,6,10,15,18-pentaone]
